Data from PubChem BioAssay AID1963436 (Molecular Pharmacology Branch, DTP, NCI, 2024).
Several values for one entry are separate records, joined by “and”; a condition that tells them apart may be missing. Identical values can stand only once.

Tested on: OVCAR-5 complex spheroid (HUVEC/MSC), viability % T/C
Experiment: Anticancer human tumor OVCAR-5 cell line growth inhibition [Asc];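 note: spheroids exposed to agents for 7 days before readout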;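 for viability, T/C: 100% = DMSO vehicle-treated wells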
Details: for viability, T/C: stronger effect = lower value
Summary of the method: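 Complex spheroids combining tumor cells with HUVEC endothelial cells and human MSCs, at 37 degrees C, 5% CO2; agents tested alone or combined, half-log dilutions from at or near clinical Cmax, or 10 microM if Cmax unknown.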

[1] = curve of first compound, second compound 0.01 µM
[2] = curve of first compound, second compound 0.0316 µM
[3] = curve of first compound, second compound 0.1 µM
[4] = curve of first compound, second compound 0.316 µM
[5] = curve of first compound, second compound 1 µM

## NC1CCC(NC2CC2c2ccccc2)CC1 (stereo unspecified) + CNC(C)C(=O)NC1CN(S(=O)(=O)c2cccc(S(=O)(=O)N3CCC4CCC(C(=O)NC(c5ccccc5)c5ccccc5)N4C(=O)C(NC(=O)C(C)NC)C3)c2)CCC2CCC(C(=O)NC(c3ccccc3)c3ccccc3)N2C1=O
[1]
  IC50: > 0.1 µM
[2]
  IC50: > 0.1 µM
[3]
  IC50: > 0.1 µM
[4]
  IC50: > 0.1 µM
[5]
  IC50: > 0.1 µM
Second compound 0.01 µM, first compound 0.000316 µM
  viability, T/C: 92.9%
Second compound 0.01 µM, first compound 0.001 µM
  viability, T/C: 89.8%
Second compound 0.01 µM, first compound 0.00316 µM
  viability, T/C: 80.8%
Second compound 0.01 µM, first compound 0.01 µM
  viability, T/C: 84.8%
Second compound 0.01 µM, first compound 0.0316 µM
  viability, T/C: 80.8%
Second compound 0.01 µM, first compound 0.1 µM
  viability, T/C: 79.9%
Second compound 0.0316 µM, first compound 0.000316 µM
  viability, T/C: 75.8%
Second compound 0.0316 µM, first compound 0.001 µM
  viability, T/C: 77.7%
Second compound 0.0316 µM, first compound 0.00316 µM
  viability, T/C: 75.6%
Second compound 0.0316 µM, first compound 0.01 µM
  viability, T/C: 71.5%
Second compound 0.0316 µM, first compound 0.0316 µM
  viability, T/C: 69.1%
Second compound 0.0316 µM, first compound 0.1 µM
  viability, T/C: 66.9%
Second compound 0.1 µM, first compound 0.000316 µM
  viability, T/C: 76.5%
Second compound 0.1 µM, first compound 0.001 µM
  viability, T/C: 70%
Second compound 0.1 µM, first compound 0.00316 µM
  viability, T/C: 75.5%
Second compound 0.1 µM, first compound 0.01 µM
  viability, T/C: 67.3%
Second compound 0.1 µM, first compound 0.0316 µM
  viability, T/C: 74.5%
Second compound 0.1 µM, first compound 0.1 µM
  viability, T/C: 71%
Second compound 0.316 µM, first compound 0.000316 µM
  viability, T/C: 66.1%
Second compound 0.316 µM, first compound 0.001 µM
  viability, T/C: 73%
Second compound 0.316 µM, first compound 0.00316 µM
  viability, T/C: 66.2%
Second compound 0.316 µM, first compound 0.01 µM
  viability, T/C: 70.4%
Second compound 0.316 µM, first compound 0.0316 µM
  viability, T/C: 75.1%
Second compound 0.316 µM, first compound 0.1 µM
  viability, T/C: 75.7%
Second compound 1 µM, first compound 0.000316 µM
  viability, T/C: 72.1%
Second compound 1 µM, first compound 0.001 µM
  viability, T/C: 74.1%
Second compound 1 µM, first compound 0.00316 µM
  viability, T/C: 70.5%
Second compound 1 µM, first compound 0.01 µM
  viability, T/C: 72.4%
Second compound 1 µM, first compound 0.0316 µM
  viability, T/C: 80.8%
Second compound 1 µM, first compound 0.1 µM
  viability, T/C: 78.1%

## Cc1nc(N2CCC3(CC2)COC(C)C3N)c(CO)nc1Sc1ccnc(N)c1Cl (stereo unspecified)
Compound 0.00949 µM
  viability, T/C: 109% and 97.2% and 107%
Compound 0.03 µM
  viability, T/C: 99.2% and 97.7% and 99.4%
Compound 0.0949 µM
  viability, T/C: 84.9% and 85.5% and 83.2%
Compound 0.3 µM
  viability, T/C: 84.3% and 72.2% and 87.1%
Compound 0.949 µM
  viability, T/C: 77.6% and 64.7% and 77.7%
Compound 3 µM
  viability, T/C: 62% and 60.2% and 56.3%
Curve of compound
  IC50: > 3 µM

## Cc1c(S(C)(=O)=O)c(-c2cc(F)cc(N3CCN(c4ccc(NS(=O)(=O)c5ccc(NC(CCN6CCC(C(=O)OCCCP(=O)(O)O)CC6)CSc6ccccc6)c(S(=O)(=O)C(F)(F)F)c5)cc4)CC3)c2)c(-c2ccc(Cl)cc2)n1C(C)C (stereo unspecified)
Compound 0.316 µM
  viability, T/C: 92.2% [middle of 14 runs]
Compound 1 µM
  viability, T/C: 90.3% [middle of 14 runs]
Compound 3.16 µM
  viability, T/C: 88.8% [middle of 13 runs]
Compound alone, run of 09/27/2022
  IC50: > 10 µM

## CCN1C(C(=O)NC23CCC(C(=O)O)(CC2)CC3)C(c2cccc(Cl)c2F)C2(C(=O)Nc3cc(Cl)ccc32)C12CCCCC2 (stereo unspecified) + CNC(C)C(=O)NC1CN(S(=O)(=O)c2cccc(S(=O)(=O)N3CCC4CCC(C(=O)NC(c5ccccc5)c5ccccc5)N4C(=O)C(NC(=O)C(C)NC)C3)c2)CCC2CCC(C(=O)NC(c3ccccc3)c3ccccc3)N2C1=O
[1]
  IC50: > 3 µM
[2]
  IC50: > 3 µM
[3]
  IC50: > 3 µM
[4]
  IC50: > 3 µM
[5]
  IC50: > 3 µM
Second compound 0.01 µM, first compound 0.00949 µM
  viability, T/C: 92.6%
Second compound 0.01 µM, first compound 0.03 µM
  viability, T/C: 96.2%
Second compound 0.01 µM, first compound 0.0949 µM
  viability, T/C: 94.8%
Second compound 0.01 µM, first compound 0.3 µM
  viability, T/C: 98%
Second compound 0.01 µM, first compound 0.949 µM
  viability, T/C: 106%
Second compound 0.01 µM, first compound 3 µM
  viability, T/C: 101%
Second compound 0.0316 µM, first compound 0.00949 µM
  viability, T/C: 84.8%
Second compound 0.0316 µM, first compound 0.03 µM
  viability, T/C: 89%
Second compound 0.0316 µM, first compound 0.0949 µM
  viability, T/C: 80.7%
Second compound 0.0316 µM, first compound 0.3 µM
  viability, T/C: 84.8%
Second compound 0.0316 µM, first compound 0.949 µM
  viability, T/C: 83.4%
Second compound 0.0316 µM, first compound 3 µM
  viability, T/C: 93.8%
Second compound 0.1 µM, first compound 0.00949 µM
  viability, T/C: 88.6%
Second compound 0.1 µM, first compound 0.03 µM
  viability, T/C: 87.9%
Second compound 0.1 µM, first compound 0.0949 µM
  viability, T/C: 88.6%
Second compound 0.1 µM, first compound 0.3 µM
  viability, T/C: 84.8%
Second compound 0.1 µM, first compound 0.949 µM
  viability, T/C: 90.7%
Second compound 0.1 µM, first compound 3 µM
  viability, T/C: 86.7%
Second compound 0.316 µM, first compound 0.00949 µM
  viability, T/C: 84.4%
Second compound 0.316 µM, first compound 0.03 µM
  viability, T/C: 85%
Second compound 0.316 µM, first compound 0.0949 µM
  viability, T/C: 79%
Second compound 0.316 µM, first compound 0.3 µM
  viability, T/C: 84.2%
Second compound 0.316 µM, first compound 0.949 µM
  viability, T/C: 94.8%
Second compound 0.316 µM, first compound 3 µM
  viability, T/C: 89.6%
Second compound 1 µM, first compound 0.00949 µM
  viability, T/C: 97.2%
Second compound 1 µM, first compound 0.03 µM
  viability, T/C: 100%
Second compound 1 µM, first compound 0.0949 µM
  viability, T/C: 86.9%
Second compound 1 µM, first compound 0.3 µM
  viability, T/C: 86.9%
Second compound 1 µM, first compound 0.949 µM
  viability, T/C: 90.1%
Second compound 1 µM, first compound 3 µM
  viability, T/C: 85.2%

## C=CC(=O)N1CCN(c2nc(=O)n(-c3c(C)ccnc3C(C)C)c3nc(-c4c(O)cccc4F)c(F)cc23)C(C)C1 (stereo unspecified) + CCN1C(C(=O)NC23CCC(C(=O)O)(CC2)CC3)C(c2cccc(Cl)c2F)C2(C(=O)Nc3cc(Cl)ccc32)C12CCCCC2
Curve of first compound, second compound 0.03 µM
  IC50: > 10 µM
Curve of first compound, second compound 0.0949 µM
  IC50: > 10 µM
Curve of first compound, second compound 0.3 µM
  IC50: > 10 µM
Curve of first compound, second compound 0.949 µM
  IC50: > 10 µM
Curve of first compound, second compound 3 µM
  IC50: > 10 µM
Second compound 0.03 µM, first compound 0.0316 µM
  viability, T/C: 112%
Second compound 0.03 µM, first compound 0.1 µM
  viability, T/C: 111%
Second compound 0.03 µM, first compound 0.316 µM
  viability, T/C: 120%
Second compound 0.03 µM, first compound 1 µM
  viability, T/C: 125%
Second compound 0.03 µM, first compound 3.16 µM
  viability, T/C: 113%
Second compound 0.03 µM, first compound 10 µM
  viability, T/C: 104%
Second compound 0.0949 µM, first compound 0.0316 µM
  viability, T/C: 110%
Second compound 0.0949 µM, first compound 0.1 µM
  viability, T/C: 111%
Second compound 0.0949 µM, first compound 0.316 µM
  viability, T/C: 106%
Second compound 0.0949 µM, first compound 1 µM
  viability, T/C: 112%
Second compound 0.0949 µM, first compound 3.16 µM
  viability, T/C: 116%
Second compound 0.0949 µM, first compound 10 µM
  viability, T/C: 92.1%
Second compound 0.3 µM, first compound 0.0316 µM
  viability, T/C: 105%
Second compound 0.3 µM, first compound 0.1 µM
  viability, T/C: 119%
Second compound 0.3 µM, first compound 0.316 µM
  viability, T/C: 112%
Second compound 0.3 µM, first compound 1 µM
  viability, T/C: 121%
Second compound 0.3 µM, first compound 3.16 µM
  viability, T/C: 118%
Second compound 0.3 µM, first compound 10 µM
  viability, T/C: 116%
Second compound 0.949 µM, first compound 0.0316 µM
  viability, T/C: 109%
Second compound 0.949 µM, first compound 0.1 µM
  viability, T/C: 118%
Second compound 0.949 µM, first compound 0.316 µM
  viability, T/C: 102%
Second compound 0.949 µM, first compound 1 µM
  viability, T/C: 103%
Second compound 0.949 µM, first compound 3.16 µM
  viability, T/C: 109%
Second compound 0.949 µM, first compound 10 µM
  viability, T/C: 106%
Second compound 3 µM, first compound 0.0316 µM
  viability, T/C: 116%
Second compound 3 µM, first compound 0.1 µM
  viability, T/C: 118%
Second compound 3 µM, first compound 0.316 µM
  viability, T/C: 122%
Second compound 3 µM, first compound 1 µM
  viability, T/C: 111%
Second compound 3 µM, first compound 3.16 µM
  viability, T/C: 111%
Second compound 3 µM, first compound 10 µM
  viability, T/C: 111%
